Results: publication PMC7278553, “Blocking interaction between SHP2 and PD‐1 denotes a novel opportunity for developing PD‐1 inhibitors” (EMBO Molecular Medicine, 2020)

Target: T1, SHP2 (Homo sapiens, UniProt Q06124)
T1 construct: gene PTPN11; recombinant hSHP2-FC (R&D Systems, 1894-SH-100)
T1 sequence (Q06124 2-593): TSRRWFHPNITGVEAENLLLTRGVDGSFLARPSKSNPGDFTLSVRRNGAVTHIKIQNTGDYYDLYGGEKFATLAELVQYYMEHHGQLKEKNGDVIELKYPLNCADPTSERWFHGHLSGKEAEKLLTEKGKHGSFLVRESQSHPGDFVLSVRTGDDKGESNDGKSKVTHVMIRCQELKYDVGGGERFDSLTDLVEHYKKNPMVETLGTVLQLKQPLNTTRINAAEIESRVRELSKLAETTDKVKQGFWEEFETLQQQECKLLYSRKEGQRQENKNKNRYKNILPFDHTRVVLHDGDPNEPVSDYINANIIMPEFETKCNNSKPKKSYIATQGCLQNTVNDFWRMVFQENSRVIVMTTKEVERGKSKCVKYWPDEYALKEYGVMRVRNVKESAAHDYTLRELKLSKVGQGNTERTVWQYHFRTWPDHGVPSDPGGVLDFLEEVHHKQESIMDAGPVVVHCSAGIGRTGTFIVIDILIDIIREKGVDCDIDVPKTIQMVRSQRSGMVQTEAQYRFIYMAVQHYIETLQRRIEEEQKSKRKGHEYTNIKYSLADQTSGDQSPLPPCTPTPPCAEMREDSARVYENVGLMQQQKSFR
T1 sequence (Q15116 235-264 partner): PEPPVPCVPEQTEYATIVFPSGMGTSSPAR
Test: ELISA: MB blocks binding of purified recombinant SHP2-Fc to coated phospho-ITSM PD-1 peptide; supported by co-IP and split-luciferase complementation in cells
Assay type: biochemical

CN(C)c1ccc2nc3ccc(N(C)C)cc3[s+]c2c1 [MB, 3,7‐bis(dimethylamino)‐5‐phenothiazinium chloride]
ELISA: MB blocks binding of purified recombinant SHP2-Fc to coated phospho-ITSM: MB dose‐dependently blocked the binding of SHP2 protein to coated Pep‐ITSM‐p248Y, unequivocally showing that MB directly blocked interaction
